The series concerns human MDR1 P-gp. Description: Assay D: efflux in MDCK cells transfected with the human MDR1 gene. Type of series: in vitro ADME, canine. The note with it: dog; MDCK-MDR1, pH 7.4, 37° C.; read-out: Assay D: MDCK efflux ratio (BA/AB). The method, then:
The MDCK assay provides information on the potential of a compound to pass the blood brain barrier. Permeability measurements across polarized, confluent MDCK-MDR1 cell monolayers grown on permeable filter supports are used as an in vitro absorption model: apparent permeability coefficients (PE) of the compounds across the MDCK-MDR1 cell monolayers are measured (pH 7.4, 37° C.) in apical-to-basal (AB) and basal-to-apical (BA) transport direction.
The AB permeability (PEAB) represents drug absorption from the blood into the brain and the BA permeability (PEBA) drug efflux from the brain back into the blood via both, passive permeability as well as active transport mechanisms mediated by efflux and uptake transporters that are expressed on the MDCK-MDR1 cells, predominantly by the overexpressed human MDR1 P-gp. Identical or similar permeabilities in both transport directions indicate passive permeation, vectorial permeability points to additional active transport mechanisms. Higher PEBA than PEAB (PEBA/PEAB>5) indicates the involvement of active efflux mediated by MDR1 P-gp, which might compromises the goal to achieve sufficient brain exposure. Therefore this assay provides valuable support for selection of compounds applicable for further in vivo testing. High permeability not limited by efflux at the blood brain barrier is a favourable characteristic for compounds that are to be used for drugs acting primarily in the CNS
D. Assessment of Efflux in Madin-Darby Canine Kidney (MDCK) Cells Transfected with the Human MDR1 Gene
Apparent permeability coefficients (PE) of the compounds across the MDCK-MDR1 cell monolayers are measured (pH 7.4, 37° C.) in apical-to-basal (AB) and basal-to-apical (BA) transport direction. AB permeability (PEAB) represents drug absorption from the blood into the brain and BA permeability (PEBA) drug efflux from the brain back into the blood via both passive permeability as well as active transport mechanisms mediated by efflux and uptake transporters that are expressed on the MDCK-MDR1 cells, predominantly by the overexpressed human MDR1 P-gp. The compounds are assigned to permeability/absorption classes by comparison of the AB permeabilities with the AB permeabilities of reference compounds with known in vitro permeability and oral absorption in the human. Identical or similar permeabilities in both transport directions indicate passive permeation, vectorial permeability points to additional active transport mechanisms. Higher PEBA than PEAB indicates the involvement of active efflux mediated by MDR1 P-gp. Active transport is concentration-dependently saturable.
MDCK-MDR1 cells (1-2×10 e5 cells/1 cm2 area) are seeded on filter inserts (Costar transwell polycarbonate or PET filters, 0.4 μm pore size) and cultured (DMEM) for 7 days. Subsequently, the MDR1 expression is boosted by culturing the cells with 5 mM sodium butyrate in full medium for 2 days. Compounds are dissolved in appropriate solvent (like DMSO, 1-20 mM stock solutions). Stock solutions are diluted with HTP-4 buffer (128.13 mM NaCl, 5.36 mM KCl, 1 mM MgSO4, 1.8 mM CaCl2, 4.17 mM NaHCO3, 1.19 mM Na2HPO4×7H2O, 0.41 mM NaH2PO4×H2O, 15 mM HEPES, 20 mM glucose, 0.25% BSA, pH 7.4) to prepare the transport solutions (0.1-300 μM compound, final DMSO<=0.5%). The transport solution (TL) is applied to the apical or basolateral donor side for measuring A-B or B-A permeability (3 filter replicates), respectively. The receiver side contains the same buffer as the donor side. Samples are collected at the start and end of experiment from the donor and at various time intervals for up to 2 hours also from the receiver side for concentration measurement by HPLC-MS/MS or scintillation counting. Sampled receiver volumes are replaced with fresh receiver solution.

For the compound `C[C@@H](CNc1ncc(C(F)(F)F)cn1)N(CC(F)F)C(=O)c1cc(F)cc(F)c1-n1nccn1` [Example 1], the efflux ratio is below 3.
For the compound `C[C@@H](CNc1ncc(C(F)(F)F)cn1)N(CC(F)F)C(=O)c1cccc(F)c1-n1nccn1` [Example 2], the efflux ratio was below 3.
Consider `C[C@@H](CNc1ncc(C(F)(F)F)cn1)N(CC(F)F)C(=O)c1cccc(F)c1-c1ncccn1` [Example 3], for which the efflux ratio is below 3.
Regarding `C[C@@H](CNc1ncc(C(F)(F)F)cn1)N(CC(F)F)C(=O)c1cc(F)ccc1-c1ncccn1` [Example 4], the efflux ratio was below 3.
As for `C[C@@H](CNc1ncc(C(F)(F)F)cn1)N(CC(F)F)C(=O)c1c(F)cccc1-c1ncccn1` [Example 5], the efflux ratio is below 3.

Values taken from US11324724B2, “N-(2,2-difluoroethyl)-N-[(pyrimidinylamino)propanyl]arylcarboxamides” (Boehringer Ingelheim International GmbH, priority 2017, dated 2022).
